Results as given in patent publication US4127687A, “Prevention of fouling of marine structures such as boat hulls” (Rohm and Haas Company, priority 1976, dated 1978).
≈ marks a conversion by molar mass, not a printed value. Where “and” joins values, the source holds several entries; their conditions need not be identical. Equal values may be shown once.

Columns and labels:
[1] = Amount of toxicant remaining in the test container after membrane diffusion raft tests; format: physicochemical; set-up: key: 0: empty or trace; +: some; + +: ample; details: after completion of membrane diffusion raft tests
Description: (§1) A known quantity of the test compound is placed into a cylindrical plastic container whose open end is then covered with a membrane of known porosity; the complete unit is attached to the appropriate raft panel so that the poison can freely diffuse into the free water layer around it. Regular inspections, recording time and quantity of settlement, allow a life history of each membrane trial to be constructed. Each raft panel contains 35 compounds to be evaluated together with 4 standard poisons and 1 non-toxic membrane for control.
(§2) After the completion of membrane tests the contents of all containers are checked visually for poison loss. An empty container indicates an unacceptably high solubility for long term effectiveness; where the poison loss is low the compound is tested in one of two ways depending on its performance against fouling.
^b Amount of toxicants remaining in the test container after the
completion of the membrane diffusion raft tests: 0 = empty or trace, + =

weed [2] = experiment: Membrane Diffusion Raft Trials, weed control; format: in vivo, grass-like algal growth common in sea water; details: membrane test, average 15 to 16 weeks of immersion
Description: (§3) 1). FIELD TESTS: - Membrane Diffusion Raft Trials
(§4) A specially constructed raft provides three types
(§5) a). Waterline Well illuminated, aerated
(§6) b). Flats Poorly illuminated deeper
as §1
(§7) The behavior on the raft can thus be compared with that of the standard poisons and the non-toxic control. At normal loading a membrane over the standard poisons would be free from macro-fouling after six months immersion. Compounds showing selective effects against restricted groups of fouling organisms also show up by membrane testing.
as §2
(§8) In the membrane tests, the results of approximately 140 compounds evaluated appear in Table 1. The symbols "0" means no detactable effect, the symbol "+" indicates the compound is active against the given fouling organism, and the symbol "++" means that the compound appears to be effective over at least about a four month period for essentially preventing fouling activity by the given organism. In the Table, "weed" designates a grass-like algal growth common in sea water.
(§9) Membrane Test results are of an average 15 to 16 weeks of immersion,
(§10) ^a 0 = none, + = some, + + = effective.

[3] = Water solubility by UV spectrophotometric method; format: physicochemical; details: for solubility: water, saturated solution, Table 1, read-out: Solubility by UV method
Procedure: The water solubilities of several isothiazolones were determined by UV spectrophotometric measurements of saturated aqueous solution of each compound in comparison with measurement of solutions of carefully prepared known concentration as outlined in the following example.
DETERMINATION OF SOLUBILITY OF 5-CHLORO-2-(4-FLUOROPHENYL)-4-METHYL-3-ISOTHIAZOLONE OF EXAMPLE 115
A sample of 5-chloro-2-(4-fluorophenyl)-4-methyl-3-isothiazolone (0.0406 g., 1.67 × 10^-4 mole) was dissolved in 50 ml. of methanol. A 5 ml. aliquot of the solution was diluted to 1000 ml. with deionized water, providing a solution of 1.67 × 10^-5 moles/liter concentration. An ultraviolet spectrum of this solution was run using a 10 cm. cell. The absorbance (As) at the wave length of maximum absorption (279 nm.) was 1.208. The molar absorptivity, AM, was calculated from the relationship
where b and c are path length or cell thickness and concentration respectively. Thus, AM was [formula]
Another sample of the compound (0.3-0.5 g.) was stirred vigorously in 40 ml. of deionized water for approximately 72 hrs. to give a saturated solution. The mixture was filtered through very fine filter paper (Whatman No. 50) to remove all suspended solid. Small portions of the filtrate were diluted with water by various factors until an approximately mid-scale absorbance was obtained upon running an ultraviolet spectrum. Such an absorbance was obtained at a dilution of 10. The absorbance was 0.975 in a 10 cm. cell. Using the value for AM obtained earlier, in the equation

barnacle = experiment: Membrane Diffusion Raft Trials, barnacle control; format: in vivo, barnacles; details: membrane test, average 15 to 16 weeks of immersion
Description: as §3, §4, §5, §6, §1, §7, §2, §8, §9, §10
^f The 1975 Spring settlement of barnacles was very meager and the […]

weed [4] = experiment: Paint panel / plaque tests against weed (Table 2); format: in vivo, grass-like algal growth common in sea water; set-up: key: high performance; medium performance; low performance; poor or unacceptable performance; details: April to November, 1975
Description: (3) PAINT FORMULATION AND TEST PANEL OR PLAQUE TESTS
In order to evaluate the compound under practical conditions, weighed quantities of promising compounds are ground in standard volumes of a selected range of paint media and brushed out on plaques for marine immersion.
The anti-fouling paint formulations used is exemplified by the following: […]
The most preferred specific compounds were utilized in paints including vinyl chloride-vinyl acetate copolymers, chlorinated rubber, acrylic emulsions, and conventional paints with or without rosin to contain 20% by weight of biocide in the wet film and in some cases (Example 144 and Example 145) with concentrations of 5, 10, and 15% based on the wet film. Each of the compounds is also described in the membrane tests noted above. The paints were applied at normal thicknesses to plaques or panels of 10 centimeters by 10 centimeters which were immersed in various positions as described for the raft noted above. The compounds and results, as against weed, in the season April to November, 1975, are as follows: […]

| Structure (SMILES) | Contents at the end of test (amount of toxicants remaining in the test container) [1] | Weed Control (weed [2]) | solubility [3] [µg/mL] | Barnacle Control (barnacle) | other results |
| --- | --- | --- | --- | --- | --- |
| Cc1c(Cl)sn(-c2ccc(Cl)c(Cl)c2)c1=O [Example 134] | + + | 0 | 3.5 (≈ 11.9 µM) | 0 | – |
| CCCCCCn1sc(Cl)c(Br)c1=O [Example 87] | 0 | + + | 85 (≈ 285 µM) | + + | – |
| O=c1cc(Cl)sn1CCc1ccccc1 [Example 29] | 0 | + + | 240 (≈ 1000 µM) | 0 | – |
| CCCCCCn1sc(Cl)cc1=O [Example 15] | 0 | 0 | 900 (≈ 4100 µM) | 0 | – |
| Cc1c(Cl)sn(C2CCCCC2)c1=O [Example 107] | + | 0 | 350 (≈ 1510 µM) | + | – |
| O=c1c(Cl)c(Cl)sn1-c1ccccc1 [Example 150] | – | – | – | – | Effectiveness in paint CONV (conventional anti-fouling formulation) (weed [4]): p; Effectiveness in paint CR (chlorinated rubber) (weed [4]): p; Effectiveness in paint CR/R (chlorinated rubber/rosin) (weed [4]): h; Effectiveness in paint EM (acrylic emulsion) (weed [4]): p; Effectiveness in paint V (polyvinyl chloride-acetate) (weed [4]): m; Effectiveness in paint V/R (vinyl/rosin) (weed [4]): h |
| CCCCCCCCn1sc(Cl)c(C)c1=O [Example 101] | 0 | + + | 38 (≈ 145 µM) | + + | – |
| CCCCCCCCCCCCn1sc(Cl)c(Cl)c1=O [Example 64] | + + | 0 | 0.1 to 3 (≈ 0.296 to 8.87 µM) | + | – |
| O=c1cc(Cl)sn1C1CCCCC1 [Example 27] | + | 0 | 217 (≈ 997 µM) | + | – |
| CCCCCCCCCCCCCCn1sc(Cl)c(Cl)c1=O [Example 65] | + + | 0 | 0.9 (≈ 2.46 µM) | 0 | – |
| Cc1c(Cl)sn(-c2ccccc2)c1=O [Example 111] | + | + + | 200 (≈ 886 µM) | + | – |
| Cc1c(Cl)sn(Cc2ccc(Cl)cc2)c1=O [Example 110] | + + | + | 34 (≈ 124 µM) | + | – |
| O=c1ccsn1-c1ccc(Cl)cc1 [Example 12] | + | + | 180 (≈ 850 µM) | + | – |
| Cc1c(Cl)sn(-c2ccc(C(F)(F)F)cc2)c1=O [Example 130] | – | – | 7 (≈ 23.8 µM) | – | – |
| CCC(C)CC(CC)n1sc(Cl)c(Cl)c1=O (centres unmarked) [Example 62] | – | – | 85 (≈ 301 µM) | – | – |
| CCCCCCCCn1scc(Br)c1=O [Example 48] | + | 0 | 45 (≈ 154 µM) | 0 | – |

| Structure (SMILES) | Contents at the end of test (amount of toxicants remaining in the test container) [1] | Weed Control (weed [2]) | solubility [3] [µg/mL] | Barnacle Control (barnacle) | other results |
| --- | --- | --- | --- | --- | --- |
| CCCCC(CC)Cn1sc(Cl)c(C)c1=O (centres unmarked) [Example 103] | – | – | 102 (≈ 390 µM) | – | – |
| CC(c1ccccc1)n1sc(Cl)cc1=O (centres unmarked) [Example 30] | – | – | 420 (≈ 1750 µM) | – | – |
| Cc1c(Cl)sn(-c2cccc(C(F)(F)F)c2)c1=O [Example 129] | – | – | 12 (≈ 40.9 µM) | – | – |
| Cc1ccc(-n2sc(Cl)c(C)c2=O)cc1 [Example 120] | – | – | 60 (≈ 250 µM) | – | – |
| O=c1cc(Cl)sn1-c1ccccc1 [Example 33] | + | + + | 180 (≈ 850 µM) | + | – |
| CC1CC(n2sc(Cl)c(Cl)c2=O)CC(C)(C)C1 (centres unmarked) [Example 68] | – | – | 45 (≈ 153 µM) | – | – |
| Cc1c(Cl)sn(Cc2ccccc2)c1=O [Example 109] | 0 | + + | 100 (≈ 417 µM) | + | – |
| CCCCCCCCCCCCCCCCn1sc(Cl)c(Cl)c1=O [Example 66] | + + | 0 | 0.5 (≈ 1.27 µM) | 0 | – |
| Cc1c(Cl)sn(-c2cc(Cl)cc(Cl)c2)c1=O [Example 136] | – | – | 3 (≈ 10.2 µM) | – | – |
| CCCCCCCCn1sc(Br)c(Br)c1=O [Example 95] | 0 | + + | 1.7 (≈ 4.58 µM) | 0 | – |
| CCC(C)CC(CC)n1sc(Cl)cc1=O (centres unmarked) [Example 20] | – | – | 300 (≈ 1210 µM) | – | – |
| O=c1ccsn1Cc1ccccc1 [Example 10] | 0 | 0 | 3000 (≈ 15700 µM) | 0 | – |
| O=c1c(Br)c(Cl)sn1C1CCCCC1 [Example 90] | – | – | 45 (≈ 152 µM) | – | – |
| CCCCn1sc(Cl)c(Br)c1=O [Example 86] | 0 | + + | 1170 (≈ 4320 µM) | 0 | – |
| Cc1c(Cl)sn(-c2ccc(F)cc2)c1=O [Example 115, 5-chloro-2-(4-fluorophenyl)-4-methyl-3-isothiazolone] | – | – | 35 (≈ 144 µM) | – | solubility thermodynamic at 72 h ([3]; deionized water, stirred approximately 72 hrs., UV, read-out: concentration of the saturated solution): 135 µM and 32.8 µg/mL; solubility at 72 h ([3]; deionized water, stirred approximately 72 hrs., UV, read-out: solubility of this compound): 33 µg/mL (≈ 135 µM) |
